We go through 1 substance from patent publication US8008354B2, “Death receptor sensitizing compounds and methods of use therefor” (Burnham Institute for Medical Research, priority 2006, dated 2011).

Experiment [1] deals with caspase 8. Kind of experiment: Caspase activation in PPC-1 cells (FITC-labeled peptides, caspase 8 immunoblot). It is filed as cell-based, human. To be noted: 60 μM. How it is done: FIG. 15. 5809354 sensitizes cells to anoikis through a caspase 8 dependent mechanism. (A) PPC-1 cells (5×10^4) were cultured under suspension conditions overnight and then treated with 5809354 in the presence or absence of the pan-caspase inhibitor z-VAD-fink (100 μM). Thirty hours after incubation, anoikis was determined by flow cytometry to detect cell surface annexin V expression and PI uptake. Data represents the mean±SEM percent of viable cells or colonies compared to untreated controls. (B) PPC-1 cells (5×10^4) were cultured in suspension conditions overnight and then treated with 5809354 (60 μM). At increasing times after treatment, caspase activation was detected with FITC-labeled peptides that bind preferentially and irreversibly to caspase 3/7, 8, or 9. Caspase activation was monitored by flow cytometry to quantify the percentage of fluorescently labeled cells. […] At increasing times after incubation, total cellular protein was isolated and analyzed by SDS-PAGE immunoblotting using anti-caspase 8 and anti-actin antibodies. * indicates cleaved caspase 8. […] Thirty hours after incubation, apoptosis was measured by cell surface annexin V expression and PI uptake. […] Ten hours after incubation, cell viability was measured using the MTS assay. […] EGFP expression and nuclear morphology were analyzed by fluorescence microscopy. […]
(In general: In western blotting, separated proteins are transferred to a membrane and probed.)

Experiment [2] has as its system PC-3, DU-145, LNCaP, T47D, MB-MDA-468 and OVCAR-3 cells. Nature of the experiment: MTS viability of additional malignant cell lines under adherent conditions with or without CH-11. It is filed as cell-based. How it is done: FIG. 14. Tumor cell sensitivity to anoikis correlates with sensitivity to Fas-mediated apoptosis. PC-3, DU-145, and LNCaP prostate, T47D and MB-MDA-468 breast, and OVCAR-3 ovarian cancer cells were cultured under adherent conditions with increasing concentrations of 5809354, in the presence or absence of Fas-activating antibody (CH-11, 100 ng/mL). Thirty hours after incubation, cell viability was determined using the MTS assay. Cell lines were also cultured under suspension conditions in the presence or absence of 5809354. Thirty hours after incubation, equal volumes of suspension-cultured cells were replated in a colony formation assay. Data represents the mean±SEM percent of viable cells or colonies compared to untreated controls.
Cell viability apoptosis, colony formation, and caspase activation assays. Cell viability was assessed using the MTS reduction assay (Promega, Madison, Wis., USA) according to the manufacturer's protocols and as described in Schimmer et al. (2006). Apoptosis was measured by flow cytometry to detect cell surface annexin V expression and propidium iodide (PI) uptake (Biovision, Mountain View, Calif., USA) as described in Carter et al. (2005). […] Clonogenic growth after suspension culture was measured using colony formation assays. […] Colonies were fixed, stained with methylene blue, and counted. […]

As for “4-(4-chloro-2-methylphenoxy)-N-hydroxybutanamide [compound 5809354]”, the “sequence of caspase activation” value in experiment [1] (suspension conditions) was “Active caspase 8 was detected prior to activation of caspases 3/7 and 9”. The “caspase 8 activation by immunoblot” value in experiment [1] (suspension versus adherent conditions) was “preferentially activated caspase 8 in cells cultured under suspension but not adherent conditions”. Besides, the “sensitization to CH-11” value in experiment [2] (LNCaP or MB-MDA-468 cells) is “did not sensitize”. For the same substance, the “sensitization to CH-11-induced apoptosis” value in experiment [2] (PC-3, DU-145, T47D and OVCAR-3 cell lines, CH-11 100 ng/mL) is on record as “sensitized”.
